Data on six compounds can be found in article PMC5585240, “NF-κB inhibitors, unique γ-pyranol-γ-lactams with sulfide and sulfoxide moieties from Hawaiian plant Lycopodiella cernua derived fungus Paraphaeosphaeria neglecta FT462” (Scientific Reports, 2017).

The nature of data set [1]: Cytotoxicity under the same conditions as the NF-κB assay. The format is cell-based. The conditions noted are these: human.
Data set [2] has as its system iNOS. As to the kind of experiment: Nitric oxide (iNOS) assay in LPS-stimulated RAW 264.7 cells, Griess reagent. The format is cell-based. The note with it: Mus musculus, RAW264.7; lipopolysaccharide-stimulated (1 μg/mL, 20 h) RAW 264.7 cells, nitrite; read-out: iNOS inhibition IC50. On the procedure: RAW 264.7 cells (1 × 10^4 cells/well) were seeded and incubated in 96-well culture plates at 37 °C, 5% CO2 in humidified air for 24 h. Then, complete medium was replaced with phenol red-free medium containing various concentrations of the test compounds, followed by LPS stimulation (1 μg/mL) for 20 h. The nitrite released in the culture media was reacted with Griess reagent, and the absorbance was measured at 540 nm. The amount of nitrite was calculated using a standard curve of known nitrite concentration versus absorbance at 540 nm. TPCK was used as a positive control. IC50 values were calculated using Table Curve 2D Windows V4.07 by AISN Software Inc[44].
(Griess reagent forms a coloured azo dye with nitrite.)

The nature of data set [3]: Cytotoxicity in the iNOS assay. The format is cell-based. The note with it: mouse, RAW 264.7 cells.
Data set [4] concerns NF-κB. In words: TNF-α-induced NF-κB luciferase reporter assay in human embryonic kidney cells 293. The note with it: 293 cells, 6 h, read-out: NF-κB inhibition IC50. The format is cell-based. The method, then: We employed human embryonic kidney cells 293, Panomic for monitoring changes occurring along the NF-κB pathway. Stable constructed cells were seeded into 96-well plates at 20 × 10^3 cells per well. Cells were maintained in Dulbecco’s modified Eagle’s medium (DMEM) (Invitrogen Co.), supplemented with 10% FBS, 100 units/mL penicillin, 100 μg/mL streptomycin, and 2 mM L-glutamine. After 48 h incubation, the medium was replaced and the cells were treated with various concentrations of test substances. TNF-α (human, recombinant, E. coli, Calbiochem) was used as an activator at a concentration of 2 ng/mL (0.14 nM). The plate was incubated for 6 h. Spent medium was discarded, and the cells were washed once with PBS. Cells were lysed using 50 μL (for 96-well plate) of reporter lysis buffer from Promega by incubating for 5 min on a shaker, and stored at −80 °C. The luciferase assay was performed using the Luc assay system from Promega. The gene product, luciferase enzyme, reacts with luciferase substrate, emitting light, which was detected using a luminometer (LUMIstar Galaxy BMG). Data for NF-κB inhibition are expressed as IC50 values (i.e., concentration required to inhibit TNFinduced NF-kB activity by 50%). The known NF-κB inhibitor TPCK was used as a positive control.
Background: In a reporter assay the amount or activity of a reporter protein is the signal.

The subject of data set [5] is STAT3. Also noted: method as in PMID 26107089, PMID 16928075. The note with it: cited from earlier work.
The subject of data set [6] is E. coli JW2496 (∆bamB). As to the kind of experiment: Antibacterial microbroth dilution assay. The format is cell-based. The note with it: 20 μg/mL (maximum test concentration). On the procedure: MIC values were determined against E. coli JW2496 (∆bamB) and other bacteria using the standard microbroth dilution method exactly as previously described, which is based on the methods by the Clinical and Laboratory Standards Institute[41], [42]. The maximum test concentration used was 20 μg/mL.
(In general: Dilution methods test growth across graded concentrations, often in twofold steps.)

Where [7] appears, read: Homo sapiens, HEK293, TNF-α (2 ng/mL) induced NF-κB activity.

Entries after “also recorded” stand apart in the source; their conditions may differ. Like-named read-outs stand apart in the source and are kept apart here.

As usually defined, the IC50 is the midpoint of a concentration-inhibition curve.

Compound `CCCCC[C@@H]1OC2=C(C(=O)N(OC)[C@@H]2CSC[C@@H](O)C(=O)O)[C@@H](O)[C@@]1(C)O` [Compound 2, Paraphaeosphaeride F] came in with an IC50 at 6 h in data set [1] above 50 µM. For the same compound, in data set [2], the IC50 turned out to be 43.2 ± 0.7 µM. The compound also gave an IC50 at 20 h in data set [3] above 50 µM.
Consider `Cc1ccc(S(=O)(=O)N[C@@H](Cc2ccccc2)C(=O)CCl)cc1` [TPCK, N α-tosyl-l-phenylalanine chloromethyl ketone, reference compound], for which the half-inhibitory concentration (IC50) in data set [4] (TNF-α (2 ng/mL) induced NF-κB activity) came to 4.09 ± 0.12 µM.
Consider `CCCCC[C@@H]1OC2=C(C(=O)N(OC)[C@@H]2C[S@+]([O-])C[C@@H](O)C(=O)O)[C@H](O)[C@@]1(C)O` [Compound 3, Paraphaeosphaeride G], for which the IC50 in data set [4] (setting [7]) amounted to 1.5 µM; in data set [2], 16.1 ± 6.6 µM. This compound registered an IC50 at 6 h in data set [1] above 50 µM. The concentration for half-maximal inhibition (IC50) at 20 h in data set [3] is above 50 µM.
In the case of `[H]/N=C(/NC)NCCC[C@H](N)C(=O)O` [l-NMMA, Na-l- monomethyl arginine, reference compound], the concentration for half-maximal inhibition (IC50) in data set [2] came to […].
In the case of `C=C1C2=C(C(=O)N1OC)[C@H](O)[C@@](C)(O)[C@H](CCCCC)O2` [phaeosphaeride A], in data set [5], the STAT3 inhibition entry is on record as “showed STAT3 inhibition; also recorded: showed STAT3 inhibitory activity”.
Take `CCCCC[C@@H]1OC2=C(C(=O)N(OC)[C@@H]2CSC[C@@H](O)C(=O)O)[C@H](O)[C@@]1(C)O` [Compound 1, Paraphaeosphaeride E]: the “inhibition of E. coli JW2496” value in data set [6] is on record as “mildly inhibited”. In addition, the IC50 stood at 7.1 µM in data set [4] (setting [7]) and 47.9 ± 0.03 µM in data set [2]. In data set [1], this compound showed a concentration for half-maximal inhibition (IC50) at 6 h above 50 µM. In data set [3], this compound showed a half-inhibitory concentration (IC50) at 20 h above 50 µM.
